Laboratory results: US11357745B2, “Methods and materials for treating cytokine release syndrome” (Mayo Foundation for Medical Education and Research, priority 2018, dated 2022)

Columns and labels:
[1] = tested on: human myeloma cell lines (HMCLs); assay: MTT assay across 10 human myeloma cell lines, compared with receptor surface expression by flow cytometry; assay type: cell-based
Source text: Surface expression of IL-6Rα, IL-6ST and CD44 was quantified using IL-6Rα-PE (clone UV4, Biolegend), IL-6ST-APC (2E1B02, Biolegend) and CD44-BV711 (IM7, Biolegend), and compared to isotype or unstained control.

[2] = tested on: MM1S; assay: BrdU cell cycle assay, MM1S; assay type: cell-based, human; details: metformin 10 mM, 72 hours, from 34% without metformin
Procedure: (§1) Data is presented as heat map intensity corresponding to the level of expression. (B) HMCLs were treated with different doses of metformin for 72 hours and relative proliferation compared to vehicle control was calculated using MTT assay. Data is presented as IC50 for different cell lines and IC50 was calculated using Compusyn software (n=6). (C) & (D) HMCLs MM1S, RPMI, and U266 were treated with vehicle control (DMSO) or metformin 10 mM for 72 hours. (C) For apoptosis assay, cells were suspended in Annexin V buffer and stained with Annexin V for 30 minutes. Propidium iodide was added 10 minutes prior to data acquisition by flow cytometry. (D) For cell cycle assay, BrdU was added and incubated for 4 hours. […] The data were acquired on BD Fortessa and analyzed with flowjo V10.
(§2) Cell surface expression of IL-6Rα, IL-6ST, and CD44 was quantified using the fluorescently labeled antibodies anti-IL6R-PE (UV4, Biolegend), anti-IL6ST-APC (2E1B02, Biolegend) and anti-CD44-BV711 (IM7, Biolegend), and compared with isotype control. BrdU labeling assay (Phase-Flow™, Biolegend) was performed according to the manufacturer's protocol to quantify cell cycle. […] For apoptosis assay, the cells were treated with metformin for 72 hours and quantified with Annexin V (Biolegend). […] The data were analyzed using flowJo vs10.4.2 (Flowjo LLC, USA). […]

[3] = tested on: U266; assay: BrdU cell cycle assay, U266; assay type: cell-based, human; details: U266, metformin 10 mM, 72 hours, from 35% without metformin
Procedure: as §1, §2

[4] = tested on: IL-6Rα; assay: Flow cytometry, IL-6Rα on Hep3B hepatocytes; assay type: cell-based, human; details: metformin 10 mM, 72 hours
Procedure: Human hepatocellular carcinoma cell line Hep3B was purchased from ATCC. Cells were maintained in DMEM supplemented with 10% FBS and 100 U/mL penicillin and 100 μg/mL streptomycin.
(§3) Surface expression of IL-6Rα, IL-6ST and CD44 was quantified using IL-6Rα-PE (clone UV4, Biolegend), IL-6ST-APC (2E1B02, Biolegend) and CD44-BV711 (IM7, Biolegend), and compared to isotype or unstained control. BrdU labelling assay (Phase-Flow™, Biolegend) was performed according to the manufacturer's protocol to quantify cell cycle fractions. After treatment cells were labelled with BrdU for 2 hours. For apoptosis assay, cells were treated with metformin for 72 hours and quantified with Annexin V (Biolegend). All assays were quantified on LSR Fortessa. Data were analyzed using flowJo vs10.4.2 (Flowjo LLC, USA).

[5] = tested on: soluble IL-6Rα; details: RPMI and ANBL6, metformin 10 mM, 72 hours, ELISA
Procedure: (§4) RPMI, ANBL6, U266, MM1S, and JJN3 were treated with metformin 10 mM for 72 hours and median fluorescence intensity for cell surface expression of (A) IL-6Rα, (B) IL-6-Rβ and (C) CD44 was quantified using flow cytometry. Vehicle (open bar) and metformin 10 mM (shaded bar), n=3. (D) RPMI and ANBL6 cells were cultured either in the presence of vehicle control or metformin 10 mM for 72 hours. Soluble IL-6Rα was quantified in media supernatant using ELISA kit. Vehicle (open bar) and metformin 10 mM (shaded bar), n=6. […] (E) RPMI and ANBL6 cells were cultured either in presence of vehicle control or metformin 10 mM for 72 hours. mRNA expression of IL-6Rα was quantified using qPCR TaqMan assay. Vehicle (open bar) and metformin 10 mM (shaded bar), n=6.

[6] = tested on: KMS12PE; assay: MTT assay, metformin in KMS12PE myeloma cells; assay type: cell-based; details: Homo sapiens, KMS-12-PE, 72 hours, Compusyn, read-out: metformin required to achieve 50% cell death/growth inhibition (IC50)
Procedure: (§5) Data is presented as heat map intensity corresponding to the level of expression. (B) HMCLs were treated with different doses of metformin for 72 hours and relative proliferation compared to vehicle control was calculated using MTT assay. Data is presented as IC50 for different cell lines and IC50 was calculated using Compusyn software (n=6). (C) & (D) HMCLs MM1S, RPMI, and U266 were treated with vehicle control (DMSO) or metformin 10 mM for 72 hours. (C) For apoptosis assay, cells were suspended in Annexin V buffer and stained with Annexin V for 30 minutes. Propidium iodide was added 10 minutes prior to data acquisition by flow cytometry. (D) For cell cycle assay, BrdU was added and incubated for 4 hours. Cells were fixed, permeabilized and stained with Anti-BrdU antibody for 30 minutes. 7AAD was added 10 minutes to samples before data acquisition by flow cytometry. The data were acquired on BD Fortessa and analyzed with flowjo V10.
(§6) IC50 was calculated using Compusyn software.

[7] = tested on: RPMI; assay: MTT assay, metformin in RPMI myeloma cells; assay type: cell-based; details: Homo sapiens, 72 hours, Compusyn, read-out: metformin required to achieve 50% cell death/growth inhibition (IC50)
Procedure: as §5, §6

[8] = tested on: IL-6Rα; assay: Flow cytometry, cell surface IL-6Rα on primary myeloma cells; assay type: cell-based, human; details: metformin 10 mM, 48 hours, n=11
Procedure: as §3, with “Fortessa.” for “Fortessa. Data were analyzed using flowJo vs10.4.2 (Flowjo LLC, USA).”

[9] = tested on: MM1S; assay: Annexin V / propidium iodide apoptosis assay, MM1S; assay type: cell-based, human; details: metformin 10 mM, 72 hours, Annexin V/PI
Procedure: as §1, §2

[10] = tested on: IL-6Rα; assay: Flow cytometry, cell surface IL-6Rα in HMCLs; assay type: cell-based, human; details: RPMI, ANBL6, U266, MM1S, JJN3; metformin 10 mM, 72 hours
Procedure: as §4
as §3, with “Fortessa.” for “Fortessa. Data were analyzed using flowJo vs10.4.2 (Flowjo LLC, USA).”

[11] = tested on: U266; assay: Annexin V / propidium iodide apoptosis assay, U266; assay type: cell-based, human; details: U266, metformin 10 mM, 72 hours, Annexin V/PI
Procedure: as §1, §2

[12] = tested on: RPMI IL-6Rα knock-downs; assay: MTT assay in RPMI IL-6Rα knock-down cells; assay type: cell-based, human; details: n=6
Procedure: as §6
pGFP-C-shLenti vectors (4 shRNA targeting IL-6Rα and 1 scramble control) were purchased from Origene. Lentiviral particles were generated in HEK293T cells using pMD2.G (Addgene) and psPAX2 (Addgene). HMCLs were transduced with lentiviral vector particles in the presence of Polybrene (Millipore). Stable cell lines were generated after selecting for GFP positive cells with flow sorting and treatment with puromycin. Decreased expression of IL-6Rα compared to scrambled control was confirmed with qPCR and flow cytometer.

[13] = tested on: IL-6 induced CRP production from hepatocytes (Hep3B); details: metformin 10 mM pre-treatment 72 hours, IL-6 50 ng/ml, 48 hours
[14] = tested on: JJN3 engineered to over-express IL-6Rα; assay: MTT assay in JJN3 cells over-expressing IL-6Rα; assay type: cell-based, human; details: n=6
Procedure: Ten different HMCLs were treated with metformin (0, 1 mM, 5 mM, 10 mM, 20 mM, 40 mM, and 80 mM) for 72 hours. The total numbers of live cells (metabolically active) were estimated using MTT assay. Relative proliferation was calculated by normalizing absorbance value with that obtained for vehicle control. IC50 was calculated using Compusyn software. […] (D) JJN3 IL-6Rα over-expressing cells were created using IL-6R cDNA expressing vector. Increased expression of IL-6Rα was confirmed by flow cytometry. (E) The sensitivity to metformin (IC50) was calculated using the MTT assay for cells transduced with the shRNA scrambled control or IL-6Rα KDs (n=6). […] (F) Metformin IC50 was calculated using MTT assay for JJN3 control and IL-6Rα over-expresser (n=6).
(3-(4,5-Dimethylthiazol-2-5-Diphenyltetrazolium Bromide (MTT) (ThermoFisher Scientific, MA, USA) was dissolved in PBS to make 12 mM stock solution. Cells were seeded at 10,000 cells in 50 μL complete medium. Drugs, cytokines and antibodies were added at indicated doses in 50 μL complete medium. HMCLs were incubated for 72 hours while primary myeloma cells were incubated for 48 hours in presence of vehicle control, metformin (1 mM, 5 mM, 10 mM, 20 mM, 40 mM and 80 mM). MTT (10 μL) was added to each well and incubated for an additional 2 hours. Lysis buffer (100 μL) was added to each well and absorbance was read at 570 nm. […]

[15] = tested on: ALMC1 and ALMC2; assay: MTT assay in primary amyloidosis (AL) cell lines; assay type: cell-based; details: ALMC2 high, ALMC1 low IL-6Rα expresser
Procedure: (3-(4,5-Dimethylthiazol-2-5-Diphenyltetrazolium Bromide (MTT) (Thermo Fisher Scientific, MA, USA) was dissolved in PBS to make 12 mM stock solution. Cells were seeded at 10,000 cells in 50 μl complete medium. Drugs, cytokines and antibodies were added at indicated doses in 50 μl complete medium. Cells were incubated for 72 hours for HMCLs and 48 hours for primary myeloma cells in presence of vehicle control, or metformin (1 mM, 5 mM, 10 mM, 20 mM, 40 mM, and 80 mM). MTT (10 μl) was added to each well and incubated for an additional 2 hours. Lysis buffer (100 μl) was added to each well and absorbance was read at 570 nm.

[16] = tested on: CD44; assay: Flow cytometry, cell surface CD44 in HMCLs; assay type: cell-based, human; details: RPMI, ANBL6, U266, MM1S, JJN3; metformin 10 mM, 72 hours
Procedure: as §4
as §3, with “Fortessa.” for “Fortessa. Data were analyzed using flowJo vs10.4.2 (Flowjo LLC, USA).”

[17] = tested on: IL-6Rα mRNA; assay: IL-6Rα mRNA, qPCR TaqMan assay; assay type: cell-based, human; details: RPMI and ANBL6, metformin 10 mM, 72 hours
Procedure: as §4

[18] = tested on: primary myeloma cells; assay: MTT assay in primary myeloma cells (CD138+ enriched); details: metformin 10 mM, 48 hours
Procedure: (A) Bone marrow aspirates were enriched for multiple myeloma cells by with magnetic associated cell sorting using CD138^+ (a marker for myeloma cells). Cells were treated with metformin 10 mM or vehicle control. After 48 hours of culture, the MTT assay was performed to determine the percentage of live cells. Data is presented as relative proliferation compared to vehicle control (n=6 per sample).
CD138^+ cells from bone marrow aspirates were enriched using magnetic associated cell sorting at the Hematology Research Core (Mayo Clinic Rochester, USA). Primary myeloma cells were maintained in RPMI supplemented with 10% FBS, antibiotics and 1 ng/mL IL-6.
(3-(4,5-Dimethylthiazol-2-5-Diphenyltetrazolium Bromide (MTT) (ThermoFisher Scientific, MA, USA) was dissolved in PBS to make 12 mM stock solution. Cells were seeded at 10,000 cells in 50 μL complete medium. Drugs, cytokines and antibodies were added at indicated doses in 50 μL complete medium. HMCLs were incubated for 72 hours while primary myeloma cells were incubated for 48 hours in presence of vehicle control, metformin (1 mM, 5 mM, 10 mM, 20 mM, 40 mM and 80 mM). MTT (10 μL) was added to each well and incubated for an additional 2 hours. Lysis buffer (100 μL) was added to each well and absorbance was read at 570 nm. […] IC50 was calculated using Compusyn software.

[19] = tested on: JJN3; assay: MTT assay, metformin in JJN3 myeloma cells; assay type: cell-based; details: Homo sapiens, JJN-3, JJN3, 72 hours, Compusyn, read-out: metformin required for 50% cell death/growth inhibition (IC50)
Procedure: as §5, §6

[20] = tested on: RPMI; assay: Annexin V / propidium iodide apoptosis assay, RPMI; assay type: cell-based, human; details: metformin 10 mM, 72 hours, Annexin V/PI
Procedure: as §1, §2

[21] = tested on: RPMI; assay: BrdU cell cycle assay, RPMI; assay type: cell-based, human; details: metformin 10 mM, 72 hours, from 53% without metformin
Procedure: as §1, §2

In the case of `[H]/N=C(/N)N/C(=N/[H])NCCc1ccccc1` [Phenformin], the “Phenformin IC50 versus IL-6Rα expression” value ([1]; MTT IC50 vs flow cytometry) is reported as “strongly negatively correlated”.

`CN(C)C(=N)N=C(N)N` [metformin] was tested, and the “S phase fraction after metformin treatment” value (“S phase fraction” below) [2] was 23%, the “S phase fraction” value [3] was 20% and the “IL-6Rα expression on hepatocytes” value [4] was “expression of the receptor decreased”. The “soluble IL-6Rα in media” value [5] was “decrease”, the IC50 [6] was < 10 mM and the IC50 [7] was < 10 mM. For the same compound, the “survival/growth of multiple myeloma cells” value ([1]; 72 hours, MTT, variable levels of efficacy) was “inhibited survival/growth”, the “cell surface expression of IL-6Rα on primary myeloma cells” value [8] was “decreased cell surface expression of IL-6Rα” and the “percentage of live cells after metformin treatment” value (“percentage of live cells” below) [9] was 76%. The “cell surface expression of IL-6Rα” value [10] was “significantly and consistently reduced”, the “percentage of live cells” value [11] was 67% and the “IC50 for metformin in RPMI IL-6Rα knock-downs compared to scramble control” value [12] was “significantly increased”. For the same compound, the “IL-6 induced CRP production from hepatocytes” value [13] was “significantly inhibited”, the “IC50 for metformin in JJN3 over-expressing IL-6Rα compared to wild type JJN3” value [14] was “significantly decreased” and the “Metformin IC50, ALMC2 compared to ALMC1” value [15] was “lower for ALMC2 compared to ALMC1”. For the same compound, the CD44 expression [16] was “no significant change”, the “IL-6Rα mRNA level (transcription)” value [17] was “decreased the level of IL-6Rα transcription” and the “survival/proliferation of primary myeloma cells” value [18] was “decreased survival/proliferation”. The IC50 [19] was > 30 mM, the “percentage of live cells” value [20] was 59% and the “S phase fraction” value [21] was 29%.
